As usually defined, the inhibition is the drop in the measured response relative to a control, in per cent. The low end stands for a response near the control, the high end for a response far below the control.

The target of this assay is T1, angiotensin II receptor (Bos taurus, UniProt P25104).
T1 construct: An A II receptor membrane fraction was prepared from bovine adrenal cortex; from tissue; host or cells: bovine adrenal cortex, receptor membrane fraction
T1 sequence (P25104 1-359): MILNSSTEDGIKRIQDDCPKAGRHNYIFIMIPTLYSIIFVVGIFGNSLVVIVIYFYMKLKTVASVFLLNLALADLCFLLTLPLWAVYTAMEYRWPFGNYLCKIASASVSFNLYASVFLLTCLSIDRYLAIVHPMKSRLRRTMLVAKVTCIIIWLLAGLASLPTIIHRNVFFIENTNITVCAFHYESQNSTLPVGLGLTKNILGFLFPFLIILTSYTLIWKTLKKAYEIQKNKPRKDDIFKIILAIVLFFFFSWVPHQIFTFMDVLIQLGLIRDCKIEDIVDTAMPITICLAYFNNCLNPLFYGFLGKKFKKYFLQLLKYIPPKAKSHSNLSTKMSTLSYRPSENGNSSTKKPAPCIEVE
The assay can be described thus: Inhibition of binding of angiotensin II to angiotensin receptors (125I-angiotensin II binding, receptor membrane fraction from bovine adrenal cortex). To be noted: 125I-A II, room temperature, 1 hour; for inhibition at 10 µM: 1 × 10^-5 (M); for inhibition at 1 µM: 1 × 10^-6 (M). On the procedure: Inhibition of binding of angiotensin II to angiotensin receptors
An experiment of inhibition of angiotensin II (A (II) receptor binding was conducted according to the modified Douglas et al's method [Endocrinology,102, 685-695 (1978)]. An A II receptor membrane fraction was prepared from bovine adrenal cortex.
the compound of the present invention (10^-6 -10^-5 M) and ^125 I-angiotensin II (^125 I-A II) (1.85 kBq/50 μl) were added to the receptor membrane fraction and incubated at room temperature for 1 hour. Bound and free ^125 I-A II's were separated through a filter (Whatman GF/B filter), and the radioactivity of ^125 I-A II bound to the receptor was measured.

The compound `CCCCc1cc(C(=O)NC2CCCCC2)nn1Cc1ccc(-c2ccccc2-c2nn[nH]n2)cc1` [compound 5] yielded an inhibition at 10 µM of 98% and an inhibition at 1 µM of 93%.
For `CCCCc1cc(C(=O)Nc2ccccc2)nn1Cc1ccc(-c2ccccc2-c2nn[nH]n2)cc1` [compound 7], in that order: 97% and 91%.
In turn, `CCCCCc1cc(C(=O)OCC)nn1Cc1ccc(-c2ccccc2-c2nn[nH]n2)cc1` [compound 18] showed an inhibition at 10 µM of 88% and an inhibition at 1 µM of 54%.
The compound `CCCCc1cc(C(N)=O)nn1Cc1ccc(-c2ccccc2-c2nn[nH]n2)cc1` [compound 14] had an inhibition at 10 µM of 93% and an inhibition at 1 µM of 75%.
As for `CCCc1cc(C(=O)OCC)nn1Cc1ccc(-c2ccccc2-c2nn[nH]n2)cc1` [compound 19], the inhibition at 10 µM is 90% and 1 µM produced 62% inhibition.
The matching figures for `CCCCc1cc(C(=O)NCCC)nn1Cc1ccc(-c2ccccc2-c2nn[nH]n2)cc1` [compound 13]: 99% and 85%.
In turn, `CCCCc1cc(C(=O)NCC)nn1Cc1ccc(-c2ccccc2-c2nn[nH]n2)cc1` [compound 12] had an inhibition at 10 µM of 97% and an inhibition at 1 µM of 85%.
In turn, `CCCCc1cc(C(=O)NC(C)(C)C)nn1Cc1ccc(-c2ccccc2-c2nn[nH]n2)cc1` [compound 3] returned an inhibition at 10 µM of 94% and an inhibition at 1 µM of 81%.
For `CCCCc1cc(C(=O)N2CCC(C(c3ccccc3)c3ccccc3)CC2)nn1Cc1ccc(-c2ccccc2-c2nn[nH]n2)cc1` [compound 32], in that order: 88% and 32%.
Turning to `CCCCc1cc(C(=O)NCCOC)nn1Cc1ccc(-c2ccccc2-c2nn[nH]n2)cc1` [compound 15], at 10 µM the inhibition was 95% and testing at 1 µM gave an inhibition of 88%.
For `CCCCc1cc(C(=O)NC(C)C)nn1Cc1ccc(-c2ccccc2-c2nn[nH]n2)cc1` [compound 16], in that order: 95% and 91%.
For `CCCCNC(=O)c1cc(CCCC)n(Cc2ccc(-c3ccccc3-c3nn[nH]n3)cc2)n1` [compound 2], in that order: 95% and 80%.
The compound `CCCCc1cc(C(=O)N2CCOCC2)nn1Cc1ccc(-c2ccccc2-c2nn[nH]n2)cc1` [compound 27] returned an inhibition at 10 µM of 97% and an inhibition at 1 µM of 92%.
For the compound `CCCCc1cc(C(=O)NC2Cc3ccccc3C2)nn1Cc1ccc(-c2ccccc2-c2nn[nH]n2)cc1` [compound 8], the inhibition at 10 µM amounted to 95% and at 1 µM the inhibition was 86%.
The compound `CCCCc1cc(C(=O)OCC)nn1Cc1ccc(-c2ccccc2-c2nn[nH]n2)cc1` [compound 1] had an inhibition at 10 µM of 92% and an inhibition at 1 µM of 75%.
The matching figures for `CCCCc1cc(C(=O)NOCc2ccccc2)nn1Cc1ccc(-c2ccccc2-c2nn[nH]n2)cc1` [compound 9]: 96% and 73%.
As for `CCCCc1cc(C(=O)OCC(F)(F)F)nn1Cc1ccc(-c2ccccc2-c2nn[nH]n2)cc1` [compound 20], the inhibition at 10 µM came out at 94% and the inhibition at 1 µM came out at 66%.
The matching figures for `CCCCc1cc(C(=O)OC)nn1Cc1ccc(-c2ccccc2-c2nn[nH]n2)cc1` [compound 22]: 90% and 61%.
In the case of `CCCCc1cc(C(=O)N2CCCC2)nn1Cc1ccc(-c2ccccc2-c2nn[nH]n2)cc1` [compound 25], the inhibition at 10 µM amounted to 96% and the inhibition at 1 µM was 77%.
The matching figures for `CCCCc1cc(C(=O)NCc2ccccc2)nn1Cc1ccc(-c2ccccc2-c2nn[nH]n2)cc1` [compound 6]: 95% and 83%.
In turn, `CCCCc1cc(C(=O)N2CCN(C(c3ccccc3)c3ccccc3)CC2)nn1Cc1ccc(-c2ccccc2-c2nn[nH]n2)cc1` [compound 31] returned an inhibition at 10 µM of 89% and an inhibition at 1 µM of 38%.
In turn, `CCCCc1cc(C(=O)OC(C)C)nn1Cc1ccc(-c2ccccc2-c2nn[nH]n2)cc1` [compound 17] returned an inhibition at 10 µM of 98% and an inhibition at 1 µM of 91%.
